Here are results for 101 compounds from PubChem BioAssay AID608 (Sanford-Burnham Center for Chemical Genomics, 2007).

Calls of active or inactive are those of the source. How the calls were made is not given here.

Chain of Peptidyl-prolyl cis-trans isomerase FKBP1A (Homo sapiens) (P62942 whole entry, looked up): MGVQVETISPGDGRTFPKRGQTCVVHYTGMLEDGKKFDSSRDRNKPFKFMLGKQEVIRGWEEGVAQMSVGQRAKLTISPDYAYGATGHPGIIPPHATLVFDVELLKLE

The test concerns the target Peptidyl-prolyl cis-trans isomerase FKBP1A (Homo sapiens) (UniProt P62942). The experiment in a line: small-molecule binding to FKBP12 – biophysical, NMR detection (AID 608). To be noted: purified FKBP12.
As a reminder, the Kd is the equilibrium constant for the complex coming apart. As for `CC12CCC3C(CC3(C)C)C(C)(CCC1=O)O2` (stereo unspecified), the Kd was > 4 mM (inactive). As for `O=C(c1sc2cc([N+](=O)[O-])ccc2c1Cl)N1CCOCC1`, the Kd result is “inactive”. As for `CC(C)NS(=O)(=O)c1ccc(N)cc1`, the Kd was > 4 mM (inactive). With `CNC(=O)C1=NCCCc2cc(OC)c(OC)cc21`, the Kd was > 4 mM (inactive). In the case of `COc1cccc(-c2nn(-c3ccccc3)cc2CO)c1`, the Kd is > 4 mM (inactive). To `Cc1cc(=O)n(C(N)=S)[nH]1` belongs > 4 mM (inactive).

Consider `CC1(C)C2CC(=O)[C@]3(C)C(CC[C@@]4(C)[C@H](c5ccoc5)OC(=O)[C@H]5O[C@]543)[C@@]2(C)C=C[C@@H]1O` (stereo partly specified), for which the Kd was > 4 mM (inactive). With `O=C(O)c1cccc(-n2cccc2)c1`, the Kd was > 4 mM (inactive). `CN1C(=O)/C(=C/c2ccc(O)cc2O)SC1=S`: the Kd was > 4 mM (inactive). Regarding `C=C1C(=O)OC2CC1C(OC(C)=O)C/C(C)=C/CC/C(C)=C/CC[C@]2(C)O` (stereo partly specified), the Kd is > 4 mM (inactive). On to `O=C1CCC(=O)N1CN1CCOCC1`, for which the Kd was > 4 mM (inactive). With `Cc1nc2ccccc2n1S(=O)(=O)N1CCOCC1`, the Kd entry is “inactive”. As to `O=S1(=O)CCC(Nc2ccccc2)C1` (stereo unspecified), the Kd is > 4 mM (inactive). Consider `O=C(O)c1ccccc1N1CCOCC1`, for which the Kd is > 4 mM (inactive). As to `CN(C)S(=O)(=O)c1cccc(N)c1`, the Kd is > 4 mM (inactive). Turning to `Clc1ncnc2[nH]ncc12`, the Kd was > 4 mM (inactive). As to `c1ccc(C2NCCc3[nH]cnc32)cc1` (stereo unspecified), the Kd is > 4 mM (inactive). The same measure for `Cc1csc(NC(=O)c2cccs2)n1`: > 4 mM (inactive); for `O=C(Nc1ccc2ccccc2c1)c1cnccn1`: > 4 mM (inactive); for `NC1=NC(=O)/C(=C\c2cccnc2)S1`: > 4 mM (inactive). Take `CC(=O)Nc1ccc(C(=O)n2nc(C)cc2C)cc1`: the Kd is > 4 mM (inactive). The same measure for `NC(=O)c1ccsc1NC(=O)C1=COCCO1`: > 4 mM (inactive); for `O=C(c1cc2ccccc2o1)N1CCOCC1`: “inactive”. Turning to `CCCCC(Nc1n[nH]c(=O)[nH]c1=O)C(=O)O` (stereo unspecified), the Kd is > 4 mM (inactive).

As to `CNc1nc(OC)nc(N2CCOCC2)n1`, the Kd was > 4 mM (inactive).

For `O=C1C2CCCCC2C(=O)N1c1nccs1` (stereo unspecified), the Kd is > 4 mM (inactive). For the compound `OCC1CNc2ccccc2O1` (stereo unspecified), the Kd was > 4 mM (inactive). Regarding `COC(=O)C(O)[C@@H]1C2(C)C(=O)[C@@H](CC3=C4CC(=O)O[C@@H](c5ccoc5)[C@]4(C)CCC32)[C@H](OC(C)=O)C1(C)C` (stereo partly specified), the Kd is > 4 mM (inactive). `CCC(=O)OC1[C@@H]2CC3=C4CC(=O)O[C@@H](c5ccoc5)[C@]4(C)CCC3C(C)(C2=O)[C@@H](CC(=O)OC)C1(C)C` (stereo partly specified): the Kd was > 4 mM (inactive). The same measure for `CN1CCC(N2CCN(C)CC2)CC1`: > 4 mM (inactive); for `Cc1ccc2c(c1)CC[C@H]1CC(=O)CC[C@]21C`: > 4 mM (inactive); for `CN(C)S(=O)(=O)c1ccc(NC=O)cc1`: > 4 mM (inactive). With `Cc1ccc(N2NC(=O)CC2=O)cc1C`, the Kd is > 4 mM (inactive). Consider `O=C(NCc1cccs1)c1ccc2c(c1)OCCO2`, for which the Kd is > 4 mM (inactive). In the case of `Cc1nn(C)c(C)c1C(=O)O`, the Kd is > 4 mM (inactive).

In the case of `Cn1nnc2cc(C(=O)NCc3ccco3)ccc21`, the Kd was > 4 mM (inactive).

`O=c1[nH]cc(S(=O)(=O)N2CCc3ccccc32)c(=O)[nH]1`: the Kd was > 4 mM (inactive). Turning to `O=C(COc1ccc(S(=O)(=O)NC2CCCC2)cc1)N1CCOCC1`, the Kd result is “inactive”. `OCc1ccc(-n2cncn2)cc1`: the Kd is > 4 mM (inactive). As for `Cc1ccccc1-n1c(-c2cccnc2)n[nH]c1=S`, the Kd was > 4 mM (inactive). Regarding `CC1CN(C(=O)C(Sc2ccccc2)c2ccccc2)CC(C)O1` (stereo unspecified), the Kd entry was “inactive”.

With `O=C1NC(=S)S/C1=C/c1ccncc1`, the Kd was > 4 mM (inactive).

As for `O=C(Nc1ccccc1)N1CCOCC1`, the Kd was > 4 mM (inactive). Turning to `O=C1CCC(=O)N1c1nc2ccccc2s1`, the Kd is > 4 mM (inactive). As to `Cc1sc2nc(SC3CCOC3=O)[nH]c(=O)c2c1C` (stereo unspecified), the Kd was > 4 mM (inactive). As to `CC(NC(=O)c1cccnc1)c1ccc2c(c1)OCO2` (stereo unspecified), the Kd is > 4 mM (inactive). Consider `CC1(C)O[C@H]2CC(=O)OC[C@]23[C@H]2CC[C@@]4(C)[C@H](c5ccoc5)OC(=O)[C@H]5O[C@]54[C@]2(C)C(=O)C[C@@H]13`, for which the Kd is > 4 mM (inactive). As for `COC1=CC(=O)C[C@@H](C)[C@]12Oc1c(Cl)c(OC)cc(OC)c1C2=O`, the Kd is > 4 mM (inactive). `CC(=O)OC1CCC2(C)C3CC(=O)C4(C)C(CC5OC6(CCC(C)CO6)[C@@H](C)C54)C3CC[C@H]2C1` (stereo partly specified): the Kd was > 4 mM (inactive). Take `Nc1ccc(N2CCCCC2)cc1`: the Kd is > 4 mM (inactive). For the compound `CN(C)S(=O)(=O)N1CCc2ccccc21`, the Kd was > 4 mM (inactive). Regarding `O=C(CN1C(=O)c2cccc3cccc(c23)C1=O)NO`, the Kd was > 4 mM (inactive). To `Nc1nc(-c2cccnc2)nn1C(=O)Cc1ccccc1` belongs > 4 mM (inactive). For the compound `CNc1nc(C)nc(-n2nc(C)cc2C)n1`, the Kd is > 4 mM (inactive). As for `CC1CN(Cc2ccccn2)CCC1=O` (stereo unspecified), the Kd was > 4 mM (inactive). With `Cn1cccc1C=C1C(=O)NC(=S)NC1=O`, the Kd was > 4 mM (inactive). For the compound `CSc1nc(-c2ccco2)nn1S(C)(=O)=O`, the Kd was > 4 mM (inactive). Regarding `Cc1nnsc1C(=O)N(C)c1ccccc1`, the Kd was > 4 mM (inactive). In the case of `C/C(=N\NC(N)=S)C(=O)O`, the Kd was > 4 mM (inactive).

For the compound `O=C(C1CCC(C(=O)N2CCCC2)CC1)N1CCCC1` (stereo unspecified), the Kd was > 4 mM (inactive). With `COc1cc(C(C)=O)ccc1OCC(O)Cn1ccnc1` (stereo unspecified), the Kd was > 4 mM (inactive). For the compound `c1ccc(NCc2nc(-c3ccccc3)no2)cc1`, the Kd was > 4 mM (inactive). For the compound `CSc1ccccc1C(=O)N1CCOCC1`, the Kd is > 4 mM (inactive). On to `O=C1CSC(=Nc2ccc(Cl)cc2)N1`, for which the Kd was > 4 mM (inactive). With `OCc1ccc(-n2cccn2)cc1`, the Kd is > 4 mM (inactive). Consider `O=C(O)CCC(=O)Nc1ccccc1F`, for which the Kd was > 4 mM (inactive). To `S=C(NCc1cccnc1)NC1CC1` belongs > 4 mM (inactive).

Consider `COc1ccccc1NC(=O)c1ccc(Br)o1`, for which the Kd is > 4 mM (inactive). With `Cc1cc(NC(=O)c2ccccc2C(=O)O)no1`, the Kd was > 4 mM (inactive). The same measure for `CC(=O)Nc1ccc(C)cc1NC(C)=O`: > 4 mM (inactive). On to `O=C(NN1C(=O)c2ccccc2C1=O)c1cccs1`, for which the Kd was > 4 mM (inactive).

Regarding `NC(=O)C1CCN(c2nccc(C(F)(F)F)n2)CC1`, the Kd is > 4 mM (inactive). As to `O=C1CN(C(=O)CN2CCOCC2)c2ccccc2N1`, the Kd was > 4 mM (inactive). As to `O=C(O)C1CSC(c2cccnc2)N1` (stereo unspecified), the Kd is > 4 mM (inactive).

As for `CCC(=O)Nc1ccccc1NC(C)=O`, the Kd is > 4 mM (inactive). Consider `CC(=O)c1cc2c(cc1O)OC(C)(C)C=C2`, for which the Kd was > 4 mM (inactive). As to `O=c1cnnc(N2CCCCC2)[nH]1`, the Kd is > 4 mM (inactive). To `C/C=C(\C)C(=O)O[C@H]1C[C@@H](OC(C)=O)[C@@]2(C(=O)OC)CO[C@@H]3C2[C@]12CO[C@](O)(C(=O)OC)[C@H]2[C@](C)(C12O[C@@]1(C)[C@H]1C[C@@H]2OC2OC=C[C@@]21O)[C@@H]3O` (stereo partly specified) belongs > 4 mM (inactive); to `N/N=C1\CCCc2c1no[n+]2[O-]`, > 4 mM (inactive). Take `O=C1c2cccnc2C(=O)N1Cc1ccco1`: the Kd was > 4 mM (inactive). For `Cc1cc(C(=O)NCc2cccs2)c(C)o1`, the Kd is > 4 mM (inactive). The same measure for `Cn1cc(C(=O)N/N=C/c2ccccc2)ccc1=O`: > 4 mM (inactive); for `C=C1CCC(C2CC(=O)OC2=O)C(=O)CCC2C1CC2(C)C` (stereo unspecified): > 4 mM (inactive). On to `CCn1ncc(Cl)c1C(=O)Nc1ccncc1`, for which the Kd was > 4 mM (inactive). To `c1coc(CNc2nc(-c3ccncc3)cs2)c1` belongs > 4 mM (inactive). Consider `CCCc1nc2ccccc2c2nc(N)nn12`, for which the Kd was > 4 mM (inactive).

On to `NC1Cc2ccccc2C1`, for which the Kd was > 4 mM (inactive).

For the compound `O=c1[nH]c2c(c(=O)n1C1CCCCC1)CCC2`, the Kd is > 4 mM (inactive). Consider `Cc1nc(-c2ccc(NS(C)(=O)=O)cc2)cs1`, for which the Kd was > 4 mM (inactive). Regarding `OCc1ccc(OC(F)(F)F)cc1`, the Kd was > 4 mM (inactive).

Turning to `CC(=O)NC1=C(N(C)C)C(=O)c2ccccc2C1=O`, the Kd was > 4 mM (inactive).

As for `NC(=O)CSCc1ccc(Br)cc1`, the Kd was > 4 mM (inactive).

As to `COc1ccc2c(c1)C(NC(C)=O)C(=O)N2C` (stereo unspecified), the Kd is > 4 mM (inactive).

In the case of `COc1ccc2c(Cl)c(C(=O)N3CCOCC3)sc2c1`, the Kd result was “inactive”. For `Cc1cc(O)c2c(c1)C(=O)c1cccc(O)c1C2=O`, the Kd is > 4 mM (inactive). As to `COc1c(-c2ccccc2)oc2c(OC)cccc2c1=O`, the Kd is > 4 mM (inactive). Consider `Cc1nn(-c2ccccc2)c(Cl)c1C(N)=O`, for which the Kd was > 4 mM (inactive). `NC1=NC(=O)/C(=C/c2ccc(O)c(Cl)c2)S1`: the Kd was > 4 mM (inactive). The same measure for `Cc1ccccc1N1C(=O)CC(=O)NC1=O`: > 4 mM (inactive). As to `CC(=O)O[C@H]1C(=O)[C@@]2(C)C([C@H](OC(=O)c3ccccc3)[C@]3(O)C[C@H](OC(=O)[C@H](O)[C@@H](NC(=O)c4ccccc4)c4ccccc4)C(C)=C1C3(C)C)[C@]1(OC(C)=O)CO[C@@H]1C[C@@H]2O` (stereo partly specified), the Kd was > 4 mM (inactive). For `CSc1nnc2ccc(-c3cccnc3)nn12`, the Kd was > 4 mM (inactive).
